Measured values from PubChem BioAssay (NCI).
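Cells were grown in 96-well plates and exposed to each compound for 48 hours at five concentrations; endpoints were interpolated linearly between bracketing concentrations, or set to the highest concentration if not reached. Abbreviation: GI50, concentration required for 50% inhibition of growth. At the TGI there is no net growth.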

Columns and labels:
Assay in all cases: NCI tumour cell line growth inhibition, 48 h
ACHN renal = system: ACHN renal
CAKI-1 renal = system: CAKI-1 renal
HCT-116 colon = system: HCT-116 colon
HOP-92 NSCLC = system: HOP-92 NSCLC
K-562 leukemia = system: K-562 leukemia
NCI-H522 lung = system: NCI-H522 lung
OVCAR-4 ovarian = system: OVCAR-4 ovarian
PC-3 prostate = system: PC-3 prostate
TK-10 renal = system: TK-10 renal
UO-31 renal = system: UO-31 renal

Row | Structure (SMILES) | GI50 (ACHN renal) | TGI (ACHN renal) | GI50 (CAKI-1 renal) | TGI (CAKI-1 renal) | GI50 (HCT-116 colon) | TGI (HCT-116 colon) | GI50 (HOP-92 NSCLC) | TGI (HOP-92 NSCLC) | GI50 (K-562 leukemia) | TGI (K-562 leukemia) | GI50 (NCI-H522 lung) | TGI (NCI-H522 lung) | GI50 (OVCAR-4 ovarian) | TGI (OVCAR-4 ovarian) | GI50 (PC-3 prostate) | TGI (PC-3 prostate) | GI50 (TK-10 renal) | TGI (TK-10 renal) | GI50 (UO-31 renal) | TGI (UO-31 renal)
1 | COc1cc2c3c(n(CCCN=[N+]=[N-])c(=O)c2cc1OC)-c1ccc(NC(C)=O)cc1C3=O | > 50 µM | > 50 µM | 8.39 µM | > 50 µM | > 50 µM | > 50 µM | > 50 µM | > 50 µM | > 50 µM | > 50 µM | > 50 µM | > 50 µM | > 50 µM | > 50 µM | > 50 µM | > 50 µM | > 50 µM | > 50 µM | 46.2 µM | > 50 µM
2 | C=C(C)C1Cc2cc(C(C)=O)ccc2O1 (stereo not given) |  | > 100 µM |  | > 100 µM |  | > 100 µM |  | > 100 µM |  | > 100 µM |  | > 100 µM |  | > 100 µM |  | > 100 µM |  | > 100 µM |  | > 100 µM
3 | N#Cc1cc2c(=S)[nH]c(=S)[nH]c2nc1SCc1ccccc1 | 27.4 µM | > 100 µM | 10.1 µM | 76.8 µM | 29.8 µM | > 100 µM | 30.1 µM | > 100 µM | 36.9 µM | > 100 µM | > 100 µM | > 100 µM | 39.2 µM | > 100 µM | 23.6 µM | > 100 µM | 12.3 µM | 65 µM | 44.8 µM | > 100 µM
4 | O=C(O)c1ccccc1C(=O)Nc1cc2c(cc1Br)-c1ccccc1C2=O |  | > 100 µM |  | > 100 µM |  | > 100 µM |  | > 100 µM |  | > 100 µM |  | > 100 µM |  | > 100 µM |  | > 100 µM |  | > 100 µM |  | > 100 µM
5 | COc1cc(-c2cn(-c3ccc(F)cc3)c(=O)[nH]2)cc(OC)c1OC | > 100 µM | > 100 µM | > 100 µM | > 100 µM | > 100 µM | > 100 µM | 79.4 µM | > 100 µM | > 100 µM | > 100 µM | > 100 µM | > 100 µM | > 100 µM | > 100 µM | > 100 µM | > 100 µM | > 100 µM | > 100 µM | > 100 µM | > 100 µM
6 | NCCNc1nc2ccc(F)cc2c2c(=O)c3cc(F)ccc3sc12 | 1.5 µM | 2.83 µM | 1.08 µM | 2.78 µM | 1.61 µM | 2.96 µM | 1.02 µM | 4.6 µM | 2.14 µM | 5.41 µM | 1.73 µM | 3.38 µM | 2.6 µM | 8.01 µM | 1.48 µM | 2.85 µM | 2.07 µM | 3.57 µM | 1.34 µM | 11.3 µM
